Consider 8 compounds from article PMC5988308, “Rhodanine derivatives as potent anti-HIV and anti-HSV microbicides” (PLoS ONE, 2018).

Data set [1] has as its system HIV-1 AD8 (CCR5-tropic strain). Put plainly: Antiviral activity on TZM-bl cells infected with HIV-1 AD8 (CPRG assay). In kind it is cell-based. The following applies: Human immunodeficiency virus 1, TZM-bl cells. The procedure:
(§1) The human TZM-bl indicator cell line (obtained from the NIH AIDS reagents program, cat. Nr 8129 (www.aidsreagent.org) and maintained at 37°C and 5% CO2 in Dulbecco’s modified Eagle’s medium (DMEM) medium containing 10% fetal bovine serum, 50 μg/mL penicillin, and 50 μg/mL streptomycin. The HIV-1 laboratory strains NL(AD8) (NIH AIDS reagents program, cat.nr 11346), NL4.3 (NIH AIDS reagents program, cat. Nr. 114) were titrated as previously reported. Briefly, serial 5-fold dilutions of each virus were made in quadruplicate wells in 96-well culture plates, in a total volume of 100 μL of growth medium (DMEM), for a total of 8 dilution steps. Freshly trypsinized cells (20,000 cells in 100 μL of growth medium containing 75 μg/mL DEAE-dextran) were added to each well, and the plates were incubated at 37°C in a humidified 5% CO2-95% air environment. After 48 h of incubation, the medium was removed and viral infection was quantified using a β-galactosidase (CPRG) assay (Roche). Twenty thousand TZM-bl cells/well were seeded in 96-well plates in complete DMEM supplemented with 30 μg/mL DEAE-dextran (Sigma-Aldrich). Three hundred times the 50% tissue culture infective dose (TCID50)/mL of each strain was pretreated for 1 h at 37°C with six serial dilutions ([…] to 3.2 nM) of each compound and then added to the cells, as previously described. Vehicle (0.1% dimethyl sulfoxide [DMSO])-treated cells served as a negative control. […] After 2 days, viral infection was quantified using a CPRG assay (Roche). The inhibitory curves were fitted by nonlinear regression, allowing for the calculation of the 50% inhibitory concentration (IC50) using the Prism software. To evaluate the cell toxicity of the compounds, the metabolic XTT [2,3-bis-(2-methoxy-4-nitro-5-sulfophenyl)-2H-tetrazolium-5-carboxanilide] test (Sigma-Aldrich) was performed according to the manufacturer’s instructions.

Data set [2] can be described thus: Cytotoxicity on TZM-bl cells (XTT test). The following applies: human, read-out: Citotoxicity (TZM-bl cells) CC50. The class given is cell-based. The procedure:
as §1

Data set [3] in a line: Cytotoxicity on human CD4+ T lymphocytes. In kind it is cell-based. The procedure: (§2) The antiviral activity and cytotoxicity of compounds 2, 9e and 9f was tested also on freshly purified human CD4^+ T lymphocytes obtained from healthy blood donors (informed consent available) as described previously on HIV laboratory strain NL4.3 and AD8 [33, 34].
A further data set deals with human CD4+ T lymphocytes. As to the kind of experiment: Cytotoxicity on human CD4+ T lymphocytes. The class given is cell-based. The method, then: as §2
The test system of the next data set is HPV-16 PsVs. Put plainly: HPV-16 inhibition assay in HeLa cells. In kind it is cell-based. The following applies: up to 50 μM. The method, then:
Plasmids and 293TT cells used for pseudovirus (PsV) production were kindly provided by John Schiller (National Cancer Institute, Bethesda, MD). 293TT cell line, derived from human embryonic kidney cells transformed with the simian virus 40 (SV40) large T antigen, was cultured in DMEM (Gibco-BRL, Gaithersburg, MD) supplemented with heat inactivated 10% FCS (Gibco- BRL), Glutamax-I 1% (Invitrogen, Carlsbad, CA) and nonessential amino acids 1% (Sigma Aldrich, Steinheim, Germany). HPV-16 PsVs were produced as described in Cagno et al 2015. 293TT cells were transfected with plasmid expressing the papillomavirus major and minor capsid proteins (L1 and L2, respectively), together with a reporter plasmid expressing GFP. Capsids were allowed to mature overnight in cell lysate; the clarified supernatant was then loaded on top of a density gradient of 27 to 33 to 39% Optiprep at room temperature for 3 h. The material was centrifuged at 28000 rpm for 16 h at 4°C in an SW41.1 rotor (Beckman Coulter, Inc., Fullerton, CA) and then collected by bottom puncture of the tubes. […] The L1 protein content of PsV stocks was determined by comparison with bovine serum albumin standards in Coomassie-stained SDS-polyacrylamide gels. […]

For the next data set, the system named is HIV-1 AD8. As to the kind of experiment: Inhibition of antiviral activity by fetal bovine serum (TZM-bl, AD8). The class given is cell-based. The following applies: FBS 0% to 10%. The procedure: To evaluate the binding of compounds to plasma proteins also in a cell based assay, the infection with the HIV laboratory strain AD8 was performed in absence or in presence of different concentrations of Fetal Bovine Serum (FBS): 2%, 5% and 10%. The representative compound 2 was pre-incubated at different concentrations ranging from 10 μM to 3.2 nM with 300 TCID50 /mL of AD8 in DMEM supplemented with 50 μg/mL penicillin, 50 μg/mL streptomycin, 30 μg/mL DEAE-dextran and FBS at the concentration described above. Maraviroc was used as control. After an hour the mixture was added to 40.000 TZM-bl cells/well plated in a 96-well plate and after two days the infection was quantified using a CPRG assay (Roche) as previously described.

Data set [4] can be described thus: Aqueous (thermodynamic) solubility. The following applies: thermodynamic from solid, water, 20°C, read-out: Water Solub. In kind it is physicochemical. The procedure:
Each solid compound (1 mg) was added to 1 mL of water. Each sample was mixed at 20°C, in a shaker water bath for 24 h. The resulting suspension was filtered through a 0.45 μm nylon filter (Acrodisc). The concentration of solubilized compounds weres determined by UV/LC-MS (performed in triplicate) by comparison with the appropriate calibration curve that was obtained from samples of the compound dissolved in methanol at different concentrations.

The target in data set [5] is bovine serum albumin (BSA) (Bos taurus, UniProt P02769). As to the kind of experiment: Albumin binding fluorimetric assay, BSA. The following applies: fluorescence quenching, 10 μM BSA. The method, then:
The binding of each compounds to HSA (human serum albumin) and BSA (bovine serum albumin) were monitored by fluorescence spectroscopy in order to determine the dissociation constant (Kd). A quantitative analysis of the potential interaction was performed by fluorimetric analysis using 96 multiwell plates: in each well a fixed concentration of HSA or BSA (10μM in phosphate buffer 1 mM), was added with different amounts of tested compound (0.1μM to 500μM by stock solutions in DMSO). Plates were gently shacked and after allowing 30 minutes at room temperature for equilibration, after excitation at 295nm, spectra were recorded from 300 to 400 nm with a Perkin Elmer EnVision Multilabel Reader 2014 spectrofluorimeter, spectra were acquired with EnVision Manager ver.1.13 software. The obtained fluorescence quenching percentages were plotted against drug concentrations and the relative Kd values were obtained using GraphPad software (version 6.0).

Where [6] appears, read: pre-incubation in complete medium containing fetal bovine serum (FBS), read-out: AD8 EC50 a.
The mark [7] stands for this setting: pre-incubation with virus without serum, read-out: AD8 EC50.

Converted amounts (≈) assume the structure as drawn. Read-outs that look alike come from different tables or passages of the source.

Sequence of bovine serum albumin (BSA) (P02769 25-607): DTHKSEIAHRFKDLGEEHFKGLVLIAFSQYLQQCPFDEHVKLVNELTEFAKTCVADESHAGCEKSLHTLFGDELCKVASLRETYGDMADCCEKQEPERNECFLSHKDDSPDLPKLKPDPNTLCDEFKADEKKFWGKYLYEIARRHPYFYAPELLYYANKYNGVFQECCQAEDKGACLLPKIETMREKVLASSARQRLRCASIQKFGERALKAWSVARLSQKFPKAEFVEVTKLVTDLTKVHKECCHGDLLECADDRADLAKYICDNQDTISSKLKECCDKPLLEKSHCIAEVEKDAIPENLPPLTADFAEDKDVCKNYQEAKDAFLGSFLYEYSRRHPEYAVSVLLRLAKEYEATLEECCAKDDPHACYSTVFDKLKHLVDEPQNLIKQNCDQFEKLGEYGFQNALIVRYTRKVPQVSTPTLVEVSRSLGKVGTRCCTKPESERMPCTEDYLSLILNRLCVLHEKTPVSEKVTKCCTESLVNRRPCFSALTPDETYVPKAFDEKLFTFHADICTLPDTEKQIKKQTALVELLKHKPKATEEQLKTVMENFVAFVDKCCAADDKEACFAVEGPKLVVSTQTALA

Broadly, the EC50 is the concentration giving half of the maximal effect. By CC50 is commonly meant the concentration that lowers cell viability or growth by half. The Kd is the equilibrium constant for the complex coming apart. Regarding `O=C(O)c1ccc(-c2ccc(/C=C3\SC(=S)N(Cc4ccc(Cl)cc4)C3=O)o2)cc1O` [Compound 2], the figures for the concentration giving a half-maximal response (EC50) in data set [1] (setting [6]) and in [1] (setting [7]) were 650 nM and 6.9 nM, respectively. The CC50 was above 20000 nM in data set [2] and 810 ± 20 nM in data set [3]. Moreover, the “SI (Selectivity Index)” value in the data set on human CD4+ T lymphocytes is given as 62. Besides, the “antiviral activity on HPV-16” value in the data set with HPV-16 PsVs was “without any antiviral activity on HPV-16”. The “effect of FBS concentration on antiviral activity” value in the data set on HIV-1 AD8 was “progressive loss of activity”. Further, the solubility at 24 h in data set [4] amounted to 0.52 ± 0.13 µg/mL (≈ 1.1 µM). Moreover, the Kd in data set [5] worked out at 630 ± 100 nM.
Take `O=C(O)c1ccc(-c2ccc(/C=C3\SC(=S)N(Cc4ccc(Cl)c(F)c4)C3=O)o2)cc1O` [Compound 9f, (Z)-4-(5-((3-(4-chloro-3-fluorobenzyl)-4-oxo-2-thioxothiazolidin-5-ylidene)methyl)furan-2-yl)-2-hydroxybenzoic acid]: the half-maximal effective concentration (EC50) in data set [1] (setting [6]) amounted to 560 ± 10 nM; in data set [1] (setting [7]) it was 20 ± 4 nM. The half-maximal cytotoxic concentration (CC50) in data set [2] was above 20000 nM. Moreover, in [4], the solubility at 24 h worked out at 0.73 ± 0.14 µg/mL (≈ 1.49 µM). Moreover, the equilibrium dissociation constant (Kd) in data set [5] is 1090 ± 900 nM.
A word on the melting point: it is the temperature, or range, at which the solid turns liquid. As for `O=C(O)c1ccc(-c2ccc(/C=C3\SC(=S)N(CCc4ccc(F)cc4)C3=O)o2)cc1O` [Compound 9a, (Z)-4-(5-((3-(4-fluorophenethyl)-4-oxo-2-thioxothiazolidin-5-ylidene)methyl)furan-2-yl)-2-hydroxybenzoic acid], the melting point is 292 °C (dec.). Also, the EC50 in data set [1] (setting [6]) was 116 ± 24 nM. For the same compound, in [1] (setting [7]), the EC50 is 7.5 nM. Moreover, the half-maximal cytotoxic concentration (CC50) in [2] was 2200 nM. The solubility at 24 h in [4] is 0.54 ± 0.08 µg/mL (≈ 1.15 µM). In addition, in [5], the Kd was 1080 ± 200 nM.
Turning to `CCc1ccc(CCN2C(=O)/C(=C/c3ccc(-c4ccc(C(=O)O)c(O)c4)o3)SC2=S)cc1` [Compound 9d, (Z)-4-(5-((3-(4-ethylphenethyl)-4-oxo-2-thioxothiazolidin-5-ylidene)methyl)furan-2-yl)-2-hydroxybenzoic acid], the melting point was 273 °C (dec.). For the same compound, the concentration giving a half-maximal response (EC50) in [1] (setting [6]) was determined as 186 ± 9 nM. In data set [1] (setting [7]), the EC50 worked out at 36 ± 3 nM. The CC50 in data set [2] is 12300 nM. Besides, in [4], the solubility at 24 h was found to be 0.25 ± 0.09 µg/mL (≈ 0.521 µM). In addition, the Kd in data set [5] worked out at 990 ± 900 nM.
As for `Cc1ccc(CCN2C(=O)/C(=C/c3ccc(-c4ccc(C(=O)O)c(O)c4)o3)SC2=S)cc1` [Compound 9b, (Z)-2-hydroxy-4-(5-((3-(4-methylphenethyl)-4-oxo-2-thioxothiazolidin-5-ylidene)methyl)furan-2-yl)benzoic acid], the melting point was 258 °C (dec.). The EC50 in data set [1] (setting [6]) amounted to 404 ± 20 nM. Moreover, the concentration for a half-maximal effect (EC50) in data set [1] (setting [7]) was found to be 46.7 ± 9 nM. In addition, in [2], the 50% cytotoxic concentration (CC50) was above 20000 nM. The solubility at 24 h in data set [4] was 0.1 ± 0.08 µg/mL (≈ 0.215 µM). The dissociation constant Kd in data set [5] was found to be 1550 ± 300 nM.
Take `O=C(O)c1ccc(-c2ccc(/C=C3\SC(=S)N(CCCc4ccccc4)C3=O)o2)cc1O` [Compound 9c, (Z)-2-hydroxy-4-(5-((4-oxo-3-(3-phenylpropyl)-2-thioxothiazolidin-5-ylidene)methyl)furan-2-yl)benzoic acid]: the melting point was 248 °C (dec.). The EC50 in [1] (setting [6]) was determined as 378 ± 15 nM. Besides, the concentration for a half-maximal effect (EC50) in data set [1] (setting [7]) stood at 27.5 ± 4 nM. For the same compound, the CC50 in data set [2] was above 20000 nM. Also, the solubility at 24 h in data set [4] worked out at 0.3 ± 0.07 µg/mL (≈ 0.644 µM). The equilibrium dissociation constant (Kd) in [5] worked out at 1050 ± 100 nM.
Turning to `O=C(O)c1ccc(-c2ccc(/C=C3\SC(=S)N(c4ccc(F)c(Cl)c4)C3=O)o2)cc1O` [Compound 9e, (Z)-4-(5-((3-(3-chloro-4-fluorophenyl)-4-oxo-2-thioxothiazolidin-5-ylidene)methyl)furan-2-yl)-2-hydroxybenzoic acid], the concentration for a half-maximal effect (EC50) in [1] (setting [6]) was found to be 400 ± 14 nM; in data set [1] (setting [7]), 26 ± 6 nM. In addition, the 50% cytotoxic concentration (CC50) in [2] was above 20000 nM. Besides, the solubility at 24 h in data set [4] worked out at 0.72 ± 0.12 µg/mL (≈ 1.51 µM). In addition, the dissociation constant Kd in [5] stood at 1070 ± 900 nM.
Turning to `O=C(O)c1ccc(-c2ccc(/C=C3\SC(=S)N(Cc4ccc(F)cc4)C3=O)o2)cc1O` [Compound 1], the EC50 in data set [1] (setting [6]) was determined as 1395 ± 10 nM; in [1] (setting [7]), 32.3 ± 3 nM. Also, the CC50 in data set [2] was above 20000 nM. Besides, the “antiviral activity on HPV-16” value in the data set on HPV-16 PsVs is listed as “without any antiviral activity on HPV-16”. In addition, the solubility at 24 h in data set [4] was 0.88 ± 0.1 µg/mL (≈ 1.93 µM). Moreover, the dissociation constant Kd in data set [5] worked out at 680 ± 100 nM.
